Our source for the IC50 and Activity values is ChEMBL document CHEMBL1157521, “Discovery of a potent, selective, and less flexible selective norepinephrine reuptake inhibitor (sNRI)” (Bioorg Med Chem Lett, 2008).

In general, IC50 refers to the concentration that inhibits the measured activity by half. Higher therefore signals a need for much substance.

Some results are limits rather than exact numbers.

Assay [1] concerns the target Sodium-dependent dopamine transporter (Homo sapiens, UniProt Q01959). The assay can be described thus: Inhibition of dopamine uptake at human DAT in human HEK293 cells. In kind it is cell-based.
The target in assay [2] is Sodium-dependent serotonin transporter (Homo sapiens, UniProt P31645). It counts as cell-based, HEK293.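 Also: blockade of serotonin uptake through human SERT expressed in HEK293 cells.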
Sodium-dependent serotonin transporter, sequence (P31645 whole entry): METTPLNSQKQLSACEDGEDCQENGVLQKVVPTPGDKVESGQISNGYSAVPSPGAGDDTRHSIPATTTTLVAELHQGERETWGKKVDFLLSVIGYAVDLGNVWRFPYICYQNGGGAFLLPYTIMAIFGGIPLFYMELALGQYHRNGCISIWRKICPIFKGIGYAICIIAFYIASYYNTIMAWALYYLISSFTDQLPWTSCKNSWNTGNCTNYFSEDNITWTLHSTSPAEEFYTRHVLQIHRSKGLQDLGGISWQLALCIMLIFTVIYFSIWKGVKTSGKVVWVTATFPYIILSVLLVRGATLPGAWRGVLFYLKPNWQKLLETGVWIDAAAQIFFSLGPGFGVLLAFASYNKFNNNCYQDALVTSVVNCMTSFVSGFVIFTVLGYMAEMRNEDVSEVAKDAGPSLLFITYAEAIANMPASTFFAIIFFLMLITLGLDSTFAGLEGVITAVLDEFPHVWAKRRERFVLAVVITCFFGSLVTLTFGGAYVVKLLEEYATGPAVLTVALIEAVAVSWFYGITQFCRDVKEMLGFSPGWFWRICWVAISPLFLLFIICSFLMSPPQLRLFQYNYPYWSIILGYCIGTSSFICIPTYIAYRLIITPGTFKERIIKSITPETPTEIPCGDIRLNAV
Assay [3] deals with Sodium-dependent noradrenaline transporter (Homo sapiens, UniProt P23975). As to the kind of experiment: Inhibition of norepinephrine uptake at human NET in human HEK293 cells. It counts as cell-based.
Sodium-dependent noradrenaline transporter, sequence (P23975 whole entry): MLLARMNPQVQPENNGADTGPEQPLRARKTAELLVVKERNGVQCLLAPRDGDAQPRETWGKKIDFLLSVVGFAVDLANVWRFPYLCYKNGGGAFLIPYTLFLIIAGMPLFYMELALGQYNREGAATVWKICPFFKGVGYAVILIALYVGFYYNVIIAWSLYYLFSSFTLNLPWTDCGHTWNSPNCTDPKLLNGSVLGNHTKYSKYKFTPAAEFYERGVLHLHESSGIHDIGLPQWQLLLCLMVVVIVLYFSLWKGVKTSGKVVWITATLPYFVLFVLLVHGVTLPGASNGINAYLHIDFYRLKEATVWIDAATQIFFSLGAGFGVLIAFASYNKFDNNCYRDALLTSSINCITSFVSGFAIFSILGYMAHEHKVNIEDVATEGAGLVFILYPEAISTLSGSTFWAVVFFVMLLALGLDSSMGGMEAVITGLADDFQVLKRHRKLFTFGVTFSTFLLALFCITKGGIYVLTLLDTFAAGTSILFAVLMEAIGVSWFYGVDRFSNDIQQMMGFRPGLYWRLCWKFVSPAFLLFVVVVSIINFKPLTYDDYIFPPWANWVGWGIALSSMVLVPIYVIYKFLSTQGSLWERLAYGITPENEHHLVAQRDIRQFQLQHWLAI
Another assay addresses Cytochrome P450 2D6 (Homo sapiens, UniProt P10635). As to the kind of experiment: Inhibition of CYP2D6. It counts as ADME.
Assay [4] deals with 5-hydroxytryptamine receptor 2B (Homo sapiens) (UniProt P41595). As to the kind of experiment: Binding affinity to 5HT2B.
5-hydroxytryptamine receptor 2B (Homo sapiens), sequence (P41595 whole entry): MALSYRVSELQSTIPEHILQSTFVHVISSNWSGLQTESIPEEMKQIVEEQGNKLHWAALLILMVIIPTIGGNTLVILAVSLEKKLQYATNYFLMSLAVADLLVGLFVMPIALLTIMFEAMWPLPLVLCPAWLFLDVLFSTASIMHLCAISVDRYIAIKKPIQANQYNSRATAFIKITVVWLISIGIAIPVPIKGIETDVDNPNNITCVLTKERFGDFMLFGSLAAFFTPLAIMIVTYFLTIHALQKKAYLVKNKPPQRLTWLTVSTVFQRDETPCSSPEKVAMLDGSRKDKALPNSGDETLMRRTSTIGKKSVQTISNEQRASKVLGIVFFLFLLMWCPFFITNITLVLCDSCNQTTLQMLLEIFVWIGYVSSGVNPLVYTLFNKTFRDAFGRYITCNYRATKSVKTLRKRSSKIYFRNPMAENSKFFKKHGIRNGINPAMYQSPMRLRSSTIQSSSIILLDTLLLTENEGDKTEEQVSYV

Sodium-dependent dopamine transporter, sequence (Q01959 whole entry): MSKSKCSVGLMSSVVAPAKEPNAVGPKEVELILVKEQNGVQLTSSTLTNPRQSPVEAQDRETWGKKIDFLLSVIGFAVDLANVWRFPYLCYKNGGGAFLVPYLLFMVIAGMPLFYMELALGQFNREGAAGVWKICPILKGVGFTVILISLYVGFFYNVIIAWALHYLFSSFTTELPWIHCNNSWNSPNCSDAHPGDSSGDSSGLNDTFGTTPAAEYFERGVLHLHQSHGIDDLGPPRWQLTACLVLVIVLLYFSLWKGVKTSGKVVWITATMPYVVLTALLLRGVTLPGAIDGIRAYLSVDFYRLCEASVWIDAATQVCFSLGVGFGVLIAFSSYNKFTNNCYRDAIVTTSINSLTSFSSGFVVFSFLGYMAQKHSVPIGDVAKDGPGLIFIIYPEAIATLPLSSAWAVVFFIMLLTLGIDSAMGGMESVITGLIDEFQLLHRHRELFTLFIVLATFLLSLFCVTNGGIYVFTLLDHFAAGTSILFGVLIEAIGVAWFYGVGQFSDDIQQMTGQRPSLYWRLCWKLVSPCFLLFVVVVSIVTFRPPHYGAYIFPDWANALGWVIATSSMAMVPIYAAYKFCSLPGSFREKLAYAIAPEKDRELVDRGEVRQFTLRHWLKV
Cytochrome P450 2D6, sequence (P10635 whole entry): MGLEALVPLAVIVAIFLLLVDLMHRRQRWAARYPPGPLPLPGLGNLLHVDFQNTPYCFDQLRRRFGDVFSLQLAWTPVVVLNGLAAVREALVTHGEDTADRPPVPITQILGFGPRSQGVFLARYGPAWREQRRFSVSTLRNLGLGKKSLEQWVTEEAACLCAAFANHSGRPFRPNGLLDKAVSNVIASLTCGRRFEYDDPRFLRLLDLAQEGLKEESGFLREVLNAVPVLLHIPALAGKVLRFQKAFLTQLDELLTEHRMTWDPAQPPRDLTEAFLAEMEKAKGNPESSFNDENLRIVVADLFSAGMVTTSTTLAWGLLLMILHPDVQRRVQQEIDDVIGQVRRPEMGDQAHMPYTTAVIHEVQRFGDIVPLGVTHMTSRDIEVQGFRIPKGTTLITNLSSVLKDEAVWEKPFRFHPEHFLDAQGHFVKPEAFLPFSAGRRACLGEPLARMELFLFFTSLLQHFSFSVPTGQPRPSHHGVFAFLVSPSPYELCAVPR

As to `CN[C@@H]1Cc2ccccc2[C@H](Oc2ccccc2C)C1`, the IC50 is over 10000 nM in assay [1], 3000 nM in assay [2] and 190 nM in assay [3].

Consider `CN[C@H]1Cc2ccccc2[C@H](Oc2ccccc2C)C1`, for which the IC50 worked out at 250 nM at Cytochrome P450 2D6, 8000 nM in assay [1], 590 nM in assay [2] and 8 nM in assay [3]. In assay [4], this molecule displayed an Activity of 250 nM.

In the case of `COc1ccc(O[C@H]2C[C@@H](N(C)C)c3ccccc32)cc1`, the half-maximal inhibitory concentration (IC50) in assay [1] is over 10000 nM; in assay [2], 130 nM; in assay [3] it was 6000 nM.

Turning to `Cc1ccccc1O[C@@H]1C[C@@H](N(C)C)Cc2ccccc21`, the IC50 in assay [1] was over 10000 nM; in assay [2] it was 700 nM; in assay [3], 430 nM.

Take `Cc1ccccc1O[C@H]1C[C@H](N(C)C)c2ccccc21`: the figures for the IC50 in assay [1], in assay [2] and in assay [3] were 3400 nM, 150 nM and 150 nM, respectively.

Regarding `CN[C@@H]1Cc2ccccc2[C@@H](Oc2ccccc2C)C1`, the IC50 in assay [1] came to 4500 nM; in assay [2] it was 3300 nM; in assay [3], 200 nM.

Regarding `CN[C@H]1Cc2ccccc2[C@@H](Oc2ccccc2C)C1`, the IC50 in assay [1] is 6000 nM; in assay [2], 1100 nM; in assay [3] it was 160 nM.

Take `CN[C@@H]1C[C@H](Oc2ccccc2)c2ccccc21` (relative stereo): the IC50 in assay [1] was 5000 nM; in assay [2], over 10000 nM; in assay [3], 2000 nM.

Regarding `CN[C@@H]1C[C@H](Oc2ccccc2C)c2ccccc21` (relative stereo), the IC50 in assay [1] came out at 4600 nM; in assay [2], 1400 nM; in assay [3], 660 nM.

As for `CN[C@@H]1CC[C@H](Oc2ccccc2C)c2ccccc21` (relative stereo), the values for the IC50 in assay [1], in assay [2] and in assay [3] were 1000 nM, 5000 nM and 520 nM, respectively.

As to `Cc1ccccc1O[C@H]1CC[C@@H](N)c2ccccc21` (relative stereo), the IC50 stood at 1000 nM in assay [1], 2300 nM in assay [2] and 630 nM in assay [3].

In the case of `Cc1ccccc1O[C@@H]1CC[C@@H](N)c2ccccc21` (relative stereo), the IC50 in assay [1] is 1000 nM; in assay [2], over 10000 nM; in assay [3] it was 950 nM.

Consider `Cc1ccccc1O[C@H]1C[C@H](N)c2ccccc21` (relative stereo), for which the IC50 in assay [1] was determined as 600 nM; in assay [2], 10000 nM; in assay [3] it was 840 nM.

Regarding `CN[C@H]1C[C@H](Oc2ccccc2C)c2ccccc21` (relative stereo), the IC50 in assay [1] was 180 nM; in assay [2], 370 nM; in assay [3], 72 nM.

For the molecule `CCN[C@@H]1C[C@H](Oc2ccccc2C)c2ccccc21` (relative stereo), the IC50 came to 2500 nM in assay [1], 8000 nM in assay [2] and 3000 nM in assay [3].

For the molecule `CCN(CC)[C@@H]1C[C@H](Oc2ccccc2C)c2ccccc21` (relative stereo), the figures for the IC50 in assay [1], in assay [2] and in assay [3] were 2500 nM, 3000 nM and 2000 nM, respectively.

With `Cc1ccccc1O[C@H]1C[C@@H](N(C)C(C)C)c2ccccc21` (relative stereo), the values for the IC50 in assay [1], in assay [2] and in assay [3] were over 10000 nM, over 10000 nM and 1100 nM, respectively.

Consider `CN(C)[C@@H]1C[C@H](Oc2ccc(Cl)cc2)c2ccccc21` (relative stereo), for which the IC50 is 7000 nM in assay [1], 50 nM in assay [2] and 1600 nM in assay [3].

For the molecule `COc1ccccc1O[C@H]1C[C@@H](N(C)C)c2ccccc21` (relative stereo), the IC50 in assay [1] is over 10000 nM; in assay [2], 3500 nM; in assay [3], 3000 nM.

With `CN[C@@H]1C[C@H](Oc2ccc(Cl)cc2)c2ccccc21` (relative stereo), the results for the IC50 in assay [1], in assay [2] and in assay [3] were 4000 nM, 320 nM and 4000 nM, respectively.

On to `N[C@@H]1C[C@H](Oc2ccc(Cl)cc2)c2ccccc21` (relative stereo), for which the IC50 came out at 2400 nM in assay [1], 9000 nM in assay [2] and 4000 nM in assay [3].

On to `CN(C)[C@@H]1C[C@H](Oc2ccccc2)c2ccccc21` (relative stereo), for which the results for the IC50 in assay [1], in assay [2] and in assay [3] were over 10000 nM, 2000 nM and 800 nM, respectively.

For `Cc1ccccc1O[C@H]1C[C@@H](N(C)C)c2ccccc21` (relative stereo), the IC50 in assay [1] came out at 10000 nM; in assay [2], 300 nM; in assay [3] it was 150 nM.

As for `N[C@@H]1C[C@H](Oc2ccccc2)c2ccccc21` (relative stereo), the IC50 in assay [1] was 2000 nM; in assay [2] it was over 10000 nM; in assay [3], 5000 nM.

The molecule `CNCCC(Oc1ccccc1OC)c1ccccc1` (stereo not given) [NISOXETINE] displayed an IC50 in assay [2] of 1400 nM.
